Values of other authors in EP0502666B2, “Ingestible compositions containing water-soluble, high-viscosity grade cellulose ethers” (THE UNIVERSITY OF MICHIGAN, priority 1991, dated 1992).

## CN(C)C(=N)N=C(N)N [metformin]
In vivo
  patients with side effects that lead to the withdrawal of the drug: ~5%
Usually transient
  patients with gastrointestinal side effects, initially: 5-20%
